Measurements as given in patent publication US10287267B2, “Isoquinolin-3-yl carboxamides and preparation and use thereof” (Samumed, LLC, priority 2016, dated 2019).
Where two headings read alike, the source gives them in different places.

Legend:
[1] = test system: Wnt pathway (Sp5-Luc reporter, TCF/LEF binding sites) in SW480 colon carcinoma cells; assay: Screening assay for Wnt activity: Sp5-Luc reporter gene assay; assay type: cell-based, human; settings: Homo sapiens; for EC50: Sp5-Luc reporter, SW480 cells, 36 to 48 hours; for inhibition at 10 µM: SW480, read-out: percent inhibition at 10 μM;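 on all read-outs here: firefly luciferase luminescence read in stably transduced SW480 cells carrying the Sp5 promoter reporter with eight TCF/LEF sites, compounds given in 0.1% DMSO final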
Description: The screening assay for Wnt activity is described as follows.
Following incubation, 15 μl of BriteLite Plus luminescence reagent (Perkin Elmer) was added to each well of the 384-well assay plates. The plates were placed on an orbital shaker for 2 min and then luminescence was quantified using the Envision (Perkin Elmer) plate reader.

[2] = molecular target: recombinant DYRK1A kinase (Homo sapiens (Human), UniProt Q13627); assay: DYRK1A kinase assay (Ser/Thr 18 peptide Z-lyte FRET); assay type: biochemical; settings: 30 μM ATP, 1 h room temperature;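 further: Read-out is the coumarin to fluorescein emission ratio, referenced to unphosphorylated (0%) and phosphorylated (100%) Ser/Thr 18 peptide controls, values from dose-response curves by non-linear regression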
recombinant GSK3β kinase = recombinant GSK3β kinase (Homo sapiens (Human), UniProt P49841); assay: GSK3β kinase assay (Ser/Thr 09 peptide Z-lyte FRET); assay type: biochemical; settings: 46 μM ATP, 1 h room temperature;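 further: kinase activity read as coumarin to fluorescein emission ratio, 11-point threefold dilutions from 10 µM to 0.0003 µM in duplicate, unphosphorylated and phosphorylated peptide as 0% and 100% controls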
[3] = test system: Tau phosphorylation at Ser396 (pSer396); assay: Tau phosphorylation assay (pSer396 ELISA / western blot) in SH-SY5Y cells; assay type: cell-based, human; settings: SH-SY5Y cells;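 further: EC50 for reduction of Tau pSer396 in lysed cells, measured by colorimetric ELISA or chemiluminescent western blot, both using the same pSer396 antibody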
[4] = test system: SW480 colon carcinoma cells; assay: Cell viability assay (CellTiter-Glo); assay type: cell-based, human; settings: Homo sapiens; for EC50: 96 h, SW480 cells, CellTiter-Glo, four days incubation; for inhibition at 10 µM: SW480, read-out: percent inhibition at 10 μM
IL-6 = IL-6 inhibition in LPS-stimulated human peripheral blood mononuclear cells (HTRF); assay type: cell-based; settings: Homo sapiens, PBMC; for EC50: Table 9, huPBMCs, LPS 50 ng/mL, 22 hours, dose-response starting from 10 μM; for inhibition at 10 µM: read-out: percent value in parentheses beside EC50 >10 μM;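 on all read-outs here: IL-6 detected by HTRF with an XL665- and Cryptate-labelled anti-IL-6 antibody pair, samples run in duplicate, EC50 obtained from a four-parameter Levenberg-Marquardt curve fit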
Description: After 22 hour incubation, a mixture of anti-IL6 XL665 and anti-IL-6 Cryptate diluted in reconstitution buffer (Catalog #62IL6PEC, Cisbio Inc., Bedford, Mass.) was added to each well. […] All samples were processed in duplicate. […] EC50 was determined using software generated by Dotmatics Limited (Windhill Bishops Stortford Herts, UK) using the Levenberg-Marquardt 4 parameter fitting procedure with finite different gradients.

[5] = test system: α-smooth muscle actin (αSMA) positive LL29 cells; assay: Inhibition of fibrotic process: αSMA in TGF-β1 treated primary human fibroblasts from IPF patients; assay type: cell-based; settings: Homo sapiens, Fibroblast, 96 h; Table 8; LL29 fibroblasts from IPF patients, TGF-β1 20 ng/mL, 4 days; dose-response 10 μM to 0.94 nM;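 further: controls were TGF-β1 stimulated wells with DMSO vehicle (positive) and cells given DMSO alone (negative), cultured in F12 medium with 1% fetal bovine serum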
[6] = Homo sapiens, overnight (16-18 h) exposure, read-out: pSer396 Tau EC50

Chain of recombinant GSK3β kinase (P49841 whole entry): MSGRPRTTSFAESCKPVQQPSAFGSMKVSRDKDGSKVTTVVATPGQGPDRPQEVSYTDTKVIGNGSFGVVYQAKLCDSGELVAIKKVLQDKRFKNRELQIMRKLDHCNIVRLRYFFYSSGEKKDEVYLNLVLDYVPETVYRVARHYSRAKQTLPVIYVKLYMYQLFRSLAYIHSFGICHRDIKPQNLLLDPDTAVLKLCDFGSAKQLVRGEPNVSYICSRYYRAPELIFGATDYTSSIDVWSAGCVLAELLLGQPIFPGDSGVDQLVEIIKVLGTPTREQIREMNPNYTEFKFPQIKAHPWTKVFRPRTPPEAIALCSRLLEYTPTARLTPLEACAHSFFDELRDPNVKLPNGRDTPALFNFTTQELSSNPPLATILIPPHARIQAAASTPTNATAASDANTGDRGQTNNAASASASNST

Row | Compound | EC50 [1] [µM] | EC50 [2] [µM] | EC50 (recombinant GSK3β kinase) [µM] | EC50 [3, 6] [µM] | EC50 [4] [µM] | inhibition at 10 µM [4] [%] | EC50 (IL-6) [µM] | inhibition at 10 µM [1] [%] | inhibition at 10 µM (IL-6) [%] | EC50 [5] [µM] | EC50 ([3]; control DYRK1A inhibitors, read-out: EC50 in the Tau assay) [µM]
1 | CN1CCC(N(C)C(=O)Nc2cc3cc(-c4cnn(C)c4)ccc3cn2)CC1 [Compound 1037, 1-methyl-3-(6-(1-methyl-1H-pyrazol-4-yl)isoquinolin-3-yl)-1-(1-methylpiperidin-4-yl)urea] | 3.64 | 0.0102 | 1.92 | > 10 | > 10 | 32.7 | 7.52 | – | – | – | –
2 | [2H]C1([2H])OC([2H])([2H])C([2H])([2H])N(CC(=O)Nc2cc3cc(-c4nnc(C)s4)ccc3cn2)C1([2H])[2H] [Compound 1052, N-(6-(5-Methyl-1,3,4-thiadiazol-2-yl)isoquinolin-3-yl)-2-(morpholino-d8) acetamide] | 2.29 | 0.018 | 0.011 | 0.254 | > 10 | 40.7 | – | – | – | – | –
3 | CCN(CC)c1ncc(-c2ccc3cnc(NC(=O)CN4CCC(F)CC4)cc3c2)s1 [Compound 1047, N-(6-(2-(Diethylamino)thiazol-5-yl)isoquinolin-3-yl)-2-(4-fluoropiperidin-1-yl)acetamide] | > 10 | 0.463 | 4.75 | > 10 | > 10 | 41.7 | > 10 | 32.6 | 4.5 | – | –
4 | Cc1nnc(-c2ccc3cnc(NC(=O)CN4CCOC[C@H]4C)cc3c2)s1 [Compound 953, (R)—N-(6-(5-Methyl-1,3,4-thiadiazol-2-yl)isoquinolin-3-yl)-2-(3-methylmorpholino)acetamide] | > 10 | 0.0168 | 0.023 | 0.398 | > 10 | 40.3 | – | 48.7 | – | – | –
5 | CN1CCN(CC23CC(C(=O)Nc4cc5cc(-c6cnn(C)c6)ccc5cn4)(C2)C3)CC1 [Compound 1088, N-(6-(1-Methyl-1H-pyrazol-4-yl)isoquinolin-3-yl)-3-((4-methylpiperazin-1-yl)methyl)bicyclo[1.1.1]pentane-1-carboxamide] | 7.4 | 0.0093 | 0.937 | 8.6 | 9.19 | – | 5.98 | – | – | – | –
6 | CC(C)CN1CCCC(C(=O)Nc2cc3cc(-c4cnn(C)c4)ccc3cn2)CC1 (stereo not drawn) [Compound 1079, 1-Isobutyl-N-(6-(1-methyl-1H-pyrazol-4-yl)isoquinolin-3-yl)azepane-4-carboxamide] | 1.43 | 0.0057 | 0.048 | 0.19 | 2.6 | – | 1.21 | – | – | – | –
7 | CN1CCC(n2cc(-c3ccc4cnc(NC(=O)C5CCCCC5)cc4c3)cn2)CC1 [Compound 969, N-(6-(1-(1-Methylpiperidin-4-yl)-1H-pyrazol-4-yl)isoquinolin-3-yl) cyclohexanecarboxamide] | 3.93 | 0.05 | 7.61 | – | 2.89 | – | 9.12 | – | – | 0.935 | –
8 | CN(C)c1nnc(-c2ccc3cnc(NC(=O)C4CCNCC4)cc3c2)o1 [Compound 1075, N-(6-(5-(Dimethylamino)-1,3,4-oxadiazol-2-yl)isoquinolin-3-yl)piperidine-4-carboxamide] | 2.54 | 0.0137 | 0.015 | 0.709 | 5.28 | – | 3.27 | – | – | – | –
9 | COC1CCN(CC(=O)Nc2cc3cc(-c4cnn(C)c4)ccc3cn2)CC1 [Compound 1077, 2-(4-Methoxypiperidin-1-yl)-N-(6-(1-methyl-1H-pyrazol-4-yl)isoquinolin-3-yl)acetamide] | 5.19 | 0.0045 | 0.032 | 0.425 | 5.25 | – | 3.17 | – | – | – | –
10 | CC#CC(=O)Nc1cc2cc(-c3cnn(C)c3)ccc2cn1 [Compound 1026, N-(6-(1-Methyl-1H-pyrazol-4-yl)isoquinolin-3-yl)but-2-ynamide] | 0.513 | 0.005 | 0.508 | – | 0.554 | – | 9.52 | – | – | 2.25 | –
11 | O=C(CN1CCCC1)Nc1cc2cc(-c3cn[nH]c3C(F)(F)F)ccc2cn1 [Compound 287, 2-(Pyrrolidin-1-yl)-N-(6-(5-(trifluoromethyl)-1H-pyrazol-4-yl)isoquinolin-3-yl)acetamide] | 7.33 | 5.14 | 9.84 | – | > 10 | 47.8 | 9.58 | – | – | 2.35 | –
12 | [2H]c1nc(NC(=O)CN2CCCC2)cc2cc(-c3cnn(C)c3)ccc12 [Compound 1093, N-(6-(1-Methyl-1H-pyrazol-4-yl)isoquinolin-3-yl-1-d)-2-(pyrrolidin-1-yl) acetamide] | 1.78 | 0.0117 | 0.047 | 0.422 | – | – | – | – | – | – | –
13 | [2H]C([2H])(C(=O)Nc1cc2cc(-c3nnc(C)s3)ccc2cn1)N1CCOCC1 [Compound 1051, N-(6-(5-Methyl-1,3,4-thiadiazol-2-yl)isoquinolin-3-yl)-2-morpholinoacetamide-2,2-d2] | 0.48 | 0.0146 | 0.009 | 0.147 | > 10 | 22.5 | – | – | – | – | –
14 | Cc1ncc(-c2ccc3cnc(NC(=O)C4CCCCC4)cc3c2)n1C [Compound 120, N-(6-(1,2-Dimethyl-1H-imidazol-5-yl)isoquinolin-3-yl) cyclohexanecarboxamide] | 2.21 | 0.0048 | 0.138 | – | 2.49 | – | 2.29 | – | – | 2.13 | –
15 | Cn1cc(-c2ccc3cnc(NC(=O)[C@H]4CC[C@H](C(=O)O)CC4)cc3c2)cn1 [Compound 1032, trans-4-((6-(1-Methyl-1H-pyrazol-4-yl)isoquinolin-3-yl)carbamoyl) cyclohexane-1-carboxylic acid] | > 10 | 0.0012 | 0.072 | – | > 10 | 34.7 | 3.32 | 27.4 | – | – | –
16 | CN1CCN(C(=O)[C@H]2CC[C@H](C(=O)Nc3cc4cc(-c5cnn(C)c5)ccc4cn3)CC2)CC1 [Compound 1091, trans-N-(6-(1-Methyl-1H-pyrazol-4-yl)isoquinolin-3-yl)-4-(4-methylpiperazine-1-carbonyl)cyclohexane-1-carboxamide] | 2.95 | 0.0014 | 0.069 | 0.869 | 1.25 | – | – | – | – | – | –
17 | COC(=O)[C@H]1CC[C@H](C(=O)Nc2cc3cc(-c4cnn(C)c4)ccc3cn2)CC1 [Compound 1084, Methyl trans-4-((6-(1-methyl-1H-pyrazol-4-yl)isoquinolin-3-yl)carbamoyl) cyclohexane-1-carboxylate] | 3.41 | 0.0017 | 0.04 | – | 3.67 | – | 0.752 | – | – | – | –
18 | Cn1cc(-c2ccc3cnc(NC(=O)C4CCN(S(C)(=O)=O)CC4)cc3c2)cn1 [Compound 330, N-(6-(1-Methyl-1H-pyrazol-4-yl)isoquinolin-3-yl)-1-(methylsulfonyl) piperidine-4-carboxamide] | 0.449 | – | – | 0.246 | 6.78 | – | 1.16 | – | – | 0.02 | –
19 | Cn1cc(-c2ccc3cnc(NC(=O)C45CC(CO)(C4)C5)cc3c2)cn1 [Compound 1083, 3-(Hydroxymethyl)-N-(6-(1-methyl-1H-pyrazol-4-yl)isoquinolin-3-yl) bicyclo[1.1.1]pentane-1-carboxamide] | 8.21 | 0.0042 | 0.914 | – | 0.901 | – | 8.73 | – | – | – | –
20 | [2H]c1nc(NC(=O)C2CCNCC2)cc2cc(-c3cnn(C)c3)ccc12 [Compound 1085, N-(6-(1-Methyl-1H-pyrazol-4-yl)isoquinolin-3-yl-1-d)piperidine-4-carboxamide] | 2.19 | 0.0024 | 0.083 | – | 1.24 | – | 0.453 | – | – | – | –
21 | Cn1cc(-c2ccc3cnc(NC(=O)N4CN5CCC[C@@H]5C4=O)cc3c2)cn1 [Compound 362, (R)—N-(6-(1-Methyl-1H-pyrazol-4-yl)isoquinolin-3-yl)-1-oxotetrahydro-1H-pyrrolo[1,2-c]imidazole-2(3H)-carboxamide] | 0.951 | 0.132 | 1.1 | – | 5.48 | – | 9.15 | – | – | 0.782 | –
22 | CCN1/C(=C/C(C)=O)Sc2ccc(O)cc21 [Indy, reference compound] | – | – | – | – | – | – | – | – | – | – | > 10
23 | CC(C)CN1CCC(F)(C(=O)Nc2cc3cc(-n4nccn4)ccc3cn2)CC1 [Compound 1073, N-(6-(2H-1,2,3-triazol-2-yl)isoquinolin-3-yl)-4-fluoro-1-isobutylpiperidine-4-carboxamide] | > 10 | 1.52 | > 10 | – | > 10 | 8.5 | > 10 | 5.9 | 3.3 | > 10 | –
24 | CC(C)CN1CCC(C(=O)Nc2cc3cc(-c4nnnn4C)ccc3cn2)CC1 [Compound 1092, 1-Isobutyl-N-(6-(1-methyl-1H-tetrazol-5-yl)isoquinolin-3-yl)piperidine-4-carboxamide] | 0.247 | 0.0627 | 0.132 | 0.131 | 2.98 | – | – | – | – | – | –
